Source: PubChem BioAssay AID1918994 (Molecular Pharmacology Branch, DTP, NCI, 2023)
“And” between values parts separate entries of the source, which are not always exact repeats. Equal values may be shown once.

System: 292921-168-R-J2-PDC complex spheroid growth
Assay: Anticancer human tumor 292921-168-R-J2-PDC patient-derived pancreatic carcinoma cell line growth inhibition [AhR]
Settings: for viability, T/C: stronger effect = lower value; active = viability on the fitted dose curve at most 10% of control; inactive = the rest
Source text: Multicellular complex tumor spheroid response to aryl hydrocarbon receptor antagonists in combination with a variety of drugs and investigational agents in selected tumor cell lines
The current study was undertaken to assess response to aryl hydrocarbon receptor antagonists in combination with standard-of-care drugs and investigational agents in solid tumor complex spheroid models. Complex spheroids include a stromal component modeled by human endothelial cells (HUVEC) and fibroblasts modeled by human mesenchymal stem cells (MSCs). The concentration ranges selected for each drug and investigational agent were based upon clinically achievable concentrations if the clinical Cmax of the agent was known.
Compounds. The drugs and investigational agents: BAY 2416964 (NSC825713), GNF351 (NSC835774), CH-223191 (NSC835775), CPI-455 (NSC825282), aza-TdCyd (NSC777586), decitabine (NSC127716), belinostat (NSC758774), entinostat (NSC756642), pevonedistat (NSC761192), tazemetostat (NSC777109), talazoparib (NSC765396), olaparib (NSC753686), selinexor (NSC780203), nedisertib (M3814, NSC802822), bortezomib (NSC756655), venetoclax (NSC766270), doxorubicin (NSC123127), elimusertib (BAY189344, NSC800525), ceralasertib (AZD6738, NSC777638), TAK-243 (NSC785004), alisertib (NSC759677), etoposide (NSC141540), topotecan (NSC609699), eribulin (NSC707389), gemcitabine (NSC613327), carboplatin (NSC241240), cisplatin (NSC119875), and SN-38 (NSC673596) were obtained from the National Cancer Institute (NCI) Developmental Therapeutics Program Chemical Repository (32). The FDA-approved anticancer drug set is available from the Developmental Therapeutics Program at https://dtp.cancer.gov/organization/dscb/obtaining/available plates.htm. […] The stock solutions were prepared in dimethyl sulfoxide (DMSO, Sigma-Aldrich, St. Louis, MO, cat. D2650), except for the platinum compounds which were prepared in saline (Quality Biological, Gaithersburg, MD, cat. 114-055-101), at 800-fold the tested concentration and stored at -70 degrees C prior to their use. All drugs and investigational agents were tested over a range starting from a high concentration at or near the clinical Cmax and decreasing in half-log increments. If the clinical Cmax for an agent had not been determined, the highest concentration tested was 10 microM (Table 1).
Cell Culture. All cells were maintained in an incubator at 37 degrees C and 5% CO2 with 95% humidity. The PDC lines were cultured according to standard operating procedures established by the NCI PDMR (https://pdmr.cancer.gov). Briefly, all PDCs were thawed and cultured in Matrigel-coated flasks prepared with a working solution of 1X Ham's F-12 nutrient mix, without supplementation (Invitrogen, Waltham, MA, cat. 11765054), 100 U/mL penicillin-streptomycin (Invitrogen, cat. 15140122), and 2.5% Matrigel (Corning Inc., Corning, NY, cat. 354248) for the first three passages. All PDCs were cultured in complete DMEM/F-12 media containing advanced DMEM/F-12 (Invitrogen, cat. 12634028), 4.9% defined fetal bovine serum, heat inactivated (HyClone Laboratories Inc., Logan, UT, cat. SH30070.03HI), 389 ng/mL hydrocortisone (Sigma-Aldrich, cat. H4001), 9.7 ng/mL human EGF recombinant protein (Invitrogen, cat. PHG0313), 23.4 microg/mL adenine (Sigma-Aldrich, cat. A2786), 97.3 U/mL penicillin-streptomycin (Invitrogen, cat. 15140122), 1.9 mM L-glutamine (Invitrogen, cat. 25030081), and 9.7 microM Y-27632 dihydrochloride (Tocris Bioscience, Bristol, United Kingdom, cat. 1254). The PDCs were cultured in complete DMEM/F12 media without 10 microM Y-27632 dihydrochloride for at least two passages prior to the screen. The established cell lines NCI-H1341 and […] were cultured in DMEM/F-12, HEPES (Invitrogen, cat. 11330032), 5% defined fetal bovine serum (HyClone Laboratories Inc., cat. SH30070.03), ITS premix universal culture supplement [insulin (5 microg/mL), transferrin (5 microg/mL), and selenious acid (5 ng/mL)] […]

[1] = curve of first compound, second compound 0.1 µM
[2] = curve of first compound, second compound 0.316 µM
[3] = curve of first compound, second compound 1 µM
[4] = curve of first compound, second compound 3.16 µM
[5] = curve of first compound, second compound 10 µM
[6] = second compound 0.1 µM, first compound 0.0316 µM
[7] = second compound 0.1 µM, first compound 0.1 µM
[8] = second compound 0.1 µM, first compound 0.316 µM
[9] = second compound 0.1 µM, first compound 1 µM
[10] = second compound 0.1 µM, first compound 3.16 µM
[11] = second compound 0.1 µM, first compound 10 µM
[12] = second compound 0.316 µM, first compound 0.0316 µM
[13] = second compound 0.316 µM, first compound 0.1 µM
[14] = second compound 0.316 µM, first compound 0.316 µM
[15] = second compound 0.316 µM, first compound 1 µM
[16] = second compound 0.316 µM, first compound 3.16 µM
[17] = second compound 0.316 µM, first compound 10 µM
[18] = second compound 1 µM, first compound 0.0316 µM
[19] = second compound 1 µM, first compound 0.1 µM
[20] = second compound 1 µM, first compound 0.316 µM
[21] = second compound 1 µM, first compound 1 µM
[22] = second compound 1 µM, first compound 3.16 µM
[23] = second compound 1 µM, first compound 10 µM
[24] = second compound 3.16 µM, first compound 0.0316 µM
[25] = second compound 3.16 µM, first compound 0.1 µM
[26] = second compound 3.16 µM, first compound 0.316 µM
[27] = second compound 3.16 µM, first compound 1 µM
[28] = second compound 3.16 µM, first compound 3.16 µM
[29] = second compound 3.16 µM, first compound 10 µM
[30] = second compound 10 µM, first compound 0.0316 µM
[31] = second compound 10 µM, first compound 0.1 µM
[32] = second compound 10 µM, first compound 0.316 µM
[33] = second compound 10 µM, first compound 1 µM
[34] = second compound 10 µM, first compound 3.16 µM
[35] = second compound 10 µM, first compound 10 µM
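Also: spheroids exposed to compounds for seven days after three days of growth.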

CC1(C)CCC(CN2CCN(c3ccc(C(=O)NS(=O)(=O)c4ccc(NCC5CCOCC5)c([N+](=O)[O-])c4)c(Oc4cnc5[nH]ccc5c4)c3)CC2)=C(c2ccc(Cl)cc2)C1 + Cc1cncc(-c2nc(NCCc3c[nH]c4ccccc34)c3ncn(C(C)C)c3n2)c1
6.79 µM: IC50 [3]
6.87 µM: IC50 [1]
3.33 µM: IC50 [5]
5.56 µM: IC50 [4]
6.72 µM: IC50 [2]
inactive: viability, T/C [6] 101% | viability, T/C [7] 96.2% | viability, T/C [8] 92.9% | viability, T/C [9] 105% | viability, T/C [10] 99.4% | viability, T/C [11] 26.2% | viability, T/C [12] 96.6% | viability, T/C [13] 104% | viability, T/C [14] 105% | viability, T/C [15] 90.6% | viability, T/C [16] 95.1% | viability, T/C [17] 26.1% | viability, T/C [18] 80.2% | viability, T/C [19] 91.7% | viability, T/C [20] 90.1% | viability, T/C [21] 96.5% | viability, T/C [22] 102% | viability, T/C [23] 28.6% | viability, T/C [24] 67.9% | viability, T/C [25] 76.3% | viability, T/C [26] 80.6% | viability, T/C [27] 77.6% | viability, T/C [28] 79.7% | viability, T/C [29] 22.3% | viability, T/C [30] 54.9% | viability, T/C [31] 52.7% | viability, T/C [32] 52.9% | viability, T/C [33] 50% | viability, T/C [34] 51.4% | viability, T/C [35] 26.8%

CC(C)c1c(-c2ccccc2)nc2c(C#N)c[nH]n2c1=O + CC(CO)NC(=O)c1cc(-c2ccc(Cl)cc2)nn(-c2cnn(C)c2)c1=O
> 10 µM: IC50 [1] | IC50 [2] | IC50 [3] | IC50 [4] | IC50 [5]
inactive: viability, T/C [6] 104% | viability, T/C [7] 105% | viability, T/C [8] 104% | viability, T/C [9] 105% | viability, T/C [10] 109% | viability, T/C [11] 101% | viability, T/C [12] 103% | viability, T/C [13] 102% | viability, T/C [14] 99.6% | viability, T/C [15] 96% | viability, T/C [16] 101% | viability, T/C [17] 89.5% | viability, T/C [18] 109% | viability, T/C [19] 102% | viability, T/C [20] 104% | viability, T/C [21] 97.1% | viability, T/C [22] 94.9% | viability, T/C [23] 99.6% | viability, T/C [24] 86.8% | viability, T/C [25] 91.9% | viability, T/C [26] 94.1% | viability, T/C [27] 89.8% | viability, T/C [28] 80.8% | viability, T/C [29] 84.2% | viability, T/C [30] 69.7% | viability, T/C [31] 67.3% | viability, T/C [32] 71.2% | viability, T/C [33] 63.8% | viability, T/C [34] 62.6% | viability, T/C [35] 68.5%

CCN(c1cc(-c2ccc(CN3CCOCC3)cc2)cc(C(=O)NCc2c(C)cc(C)[nH]c2=O)c1C)C1CCOCC1 + CC(CO)NC(=O)c1cc(-c2ccc(Cl)cc2)nn(-c2cnn(C)c2)c1=O
> 3 µM: IC50 [1] | IC50 [2] | IC50 [3] | IC50 [4] | IC50 [5]
inactive: viability, T/C (second compound 0.1 µM, first compound 0.00949 µM) 103% | viability, T/C (second compound 0.1 µM, first compound 0.03 µM) 100% | viability, T/C (second compound 0.1 µM, first compound 0.0949 µM) 102% | viability, T/C (second compound 0.1 µM, first compound 0.3 µM) 93.1% | viability, T/C (second compound 0.1 µM, first compound 0.949 µM) 96.9% | viability, T/C (second compound 0.1 µM, first compound 3 µM) 93.9% | viability, T/C (second compound 0.316 µM, first compound 0.00949 µM) 107% | viability, T/C (second compound 0.316 µM, first compound 0.03 µM) 102% | viability, T/C (second compound 0.316 µM, first compound 0.0949 µM) 100% | viability, T/C (second compound 0.316 µM, first compound 0.3 µM) 103% | viability, T/C (second compound 0.316 µM, first compound 0.949 µM) 94.8% | viability, T/C (second compound 0.316 µM, first compound 3 µM) 87% | viability, T/C (second compound 1 µM, first compound 0.00949 µM) 102% | viability, T/C (second compound 1 µM, first compound 0.03 µM) 99% | viability, T/C (second compound 1 µM, first compound 0.0949 µM) 110% | viability, T/C (second compound 1 µM, first compound 0.3 µM) 97% | viability, T/C (second compound 1 µM, first compound 0.949 µM) 95.5% | viability, T/C (second compound 1 µM, first compound 3 µM) 86.5% | viability, T/C (second compound 3.16 µM, first compound 0.00949 µM) 91.9% | viability, T/C (second compound 3.16 µM, first compound 0.03 µM) 89.4% | viability, T/C (second compound 3.16 µM, first compound 0.0949 µM) 104% | viability, T/C (second compound 3.16 µM, first compound 0.3 µM) 85% | viability, T/C (second compound 3.16 µM, first compound 0.949 µM) 81% | viability, T/C (second compound 3.16 µM, first compound 3 µM) 83% | viability, T/C (second compound 10 µM, first compound 0.00949 µM) 69.1% | viability, T/C (second compound 10 µM, first compound 0.03 µM) 71.1% | viability, T/C (second compound 10 µM, first compound 0.0949 µM) 76.4% | viability, T/C (second compound 10 µM, first compound 0.3 µM) 76.2% | viability, T/C (second compound 10 µM, first compound 0.949 µM) 69.9% | viability, T/C (second compound 10 µM, first compound 3 µM) 72.9%

COc1cc(C2c3cc4c(cc3C(OC3OC5COC(C)OC5C(O)C3O)C3COC(=O)C23)OCO4)cc(OC)c1O (configuration not stated)
inactive: viability, T/C (compound 0.0316 µM) 96% and 96.6% and 96.5% | viability, T/C (compound 0.1 µM) 93.8% and 79.8% and 87.8% | viability, T/C (compound 0.316 µM) 66.4% and 73% and 56% | viability, T/C (compound 1 µM) 43.2% and 38.8% and 31.6% | viability, T/C (compound 3.16 µM) 29% and 26% and 19.7% | viability, T/C (compound 10 µM) 13.7% and 15.4% and 10.6%
0.768 µM and 0.71 µM and 0.449 µM: IC50 (curve of compound)
